This is an account of results in paper PMC3144881, “Computational Reverse-Engineering of a Spider-Venom Derived Peptide Active Against Plasmodium falciparum SUB1” (PLoS ONE, 2011).

Data set [1] has as its system P. falciparum 3D7 segmented schizonts (egress/invasion). As to the kind of experiment: Merozoite egress/invasion assay, synchronized schizonts, flow cytometry (YOYO-1). The data set is classed as cell-based, Plasmodium falciparum. To be noted: 10 μM E64, 12 hr, 0.5% segmented schizonts, vs mock control. In general terms: Flow cytometry measures light scatter and fluorescence of single cells or particles in a stream.

The test system is the same in data set [2]. To be noted: cited from earlier work. On the procedure: A synchronised culture composed of segmented schizontes of P. falciparum (3D7 clone) at 0.5% parasitemia and 1% hematocrit is performed in a 24 wells plate. An aliquot corresponding to 10% of the starting culture (T ) is diluted in a solution at 0.04% of glutaraldehyde in PBS (Dulbecco) and store at 4 C for further flow cytometry analysis.

In data set [3] the target is T1, recombinant PfSUB1 (Plasmodium falciparum, UniProt Q8I0V0).
T1 construct: Culture supernatant containing the secreted and active PvSUB1 or PfSUB1 recombinant enzymes was harvested; 6xHis (C); made in house; host or cells: Sf9 insect cells (baculovirus)
The data set can be described thus: Enzymatic test: inhibition of recombinant PfSUB1, Dabsyl/Edans peptide substrate. The data set is classed as biochemical. To be noted: translated from the measured PfSUB1 Ki.

Another data set has as its system P. falciparum. To be noted: intra-erythrocytic cycle; cited from earlier work.
The test system of a further data set is fungi, bacteria. To be noted: cited from earlier work. From the text: (§1) In addition to therapies based on small molecules such as chloroquine, artemisinins, quinine and atovaquone, the development of new classes of molecules based on proteins or peptidomimetics [8] is an active field of research. […] Choi et al. have isolated from the ven ...
For another data set, the system named is human epithelial cells. To be noted: cited from earlier work.
Description: as §1

Data set [4] has as its system P. falciparum clone 3D7 (asynchronous culture). To be noted: read-out: EC50 on the asynchronous culture of P. falciparum intra-erythrocytic cycle; ± 6 (SEM); clone 3D7, 0,5% parasitemia, 1% hematocrit, 48 hours contact, 10 μM hypoxanthine, 37 °C. On the procedure: Asexual cultures of reference clone 3D7 obtained from MR4 (www.MR4.org) was maintained in continuous cultures following the method of Trager an Jensen, except that the medium was composed of RPMI 1640 medium supplemented with 10% decomplemented human serum (AB+), hypoxanthine 100 [drawing 51] M, gentamycin […]. Parasites were incubated at 37 [drawing 52] C in an atmosphere composed of 5%O [drawing 53] , 5%CO [drawing 54] and 90%N [drawing 55] . […] EC [drawing 57] have been determined following nonlinear regression analysis using HN-NonLin V1.1 software (http://malaria.farch.net).

For data set [5], the target named is T2, recombinant Plasmodium vivax SUB1 (PvSUB1) (Plasmodium vivax, UniProt E6Y8B9).
T2 construct: Culture supernatant containing the secreted and active PvSUB1 or PfSUB1 recombinant enzymes was harvested; 6xHis (C); made in house; host or cells: Sf9 insect cells (baculovirus)
Details: method as in Bouillon et Giganti et al, in preparation. To be noted: ± 1,7; substrate cleaved between the two aspartates, Dabsyl/Edans; ref Bouillon et Giganti et al, in preparation; read-out: apparent Km of PvSUB1 for its substrate; cited from earlier work.

Data set [6] concerns the target T1, recombinant PfSUB1. Details: method as in 2 sources, ref 22 = [22]; PMID 12764150; doi:10.1074/jbc.M303827200; 22 Jean L Hackett F Martin SR Blackman MJ 2003 Functional characterization of the propeptide of Plasmodium falciparum subtilisin-like protease-1. J Biol Chem 278 28572 9 12764150 10.1074/jbc.M30382720 ||| ref Bouillon et Giganti et al, in preparation. To be noted: ± 3,4; substrate cleaved between D and N, Dabsyl/Edans; ref Bouillon et Giganti et al, in preparation; read-out: apparent Km of PfSUB1 for its substrate; cited from earlier work.

In data set [7] the target is recombinant Plasmodium falciparum subtilisin-like serine protease SUB1 (PfSUB1), purified and active (Plasmodium falciparum) (UniProt Q8I0V0).
The target is the same in data set [8]. The source holds these as a separate data set.
Data set [9] addresses recombinant Plasmodium vivax SUB1 (PvSUB1), purified and active (Plasmodium vivax) (UniProt E6Y8B9). As to the kind of experiment: enzyme inhibition assay (Dabsyl/Edans quenched fluorescent peptide substrate); 13 ng purified PvSUB1 or PfSUB1, 25 uM substrate, 20 mM Tris pH 7.5, 25 mM CaCl2, 37 C; inhibitor at ten concentrations from 1 mM to 2 uM; fluorescence read every 3 min for 90 min; N = 3.

Data set [10] deals with recombinant Plasmodium falciparum subtilisin-like serine protease SUB1 (PfSUB1), purified and active (Plasmodium falciparum) (UniProt Q8I0V0). Described as above.

As a reminder, the EC50 is the concentration giving half of the maximal effect. A word on the Km: it is the concentration of substrate that gives half-maximal velocity. Usually Ki stands for the equilibrium dissociation constant of an inhibitor or competing ligand from its target.

Turning to `CC(C)C[C@H](NC(=O)[C@H]1O[C@@H]1C(=O)O)C(=O)NCCCCN=C(N)N` (relative stereo) [E64, trans-Epoxysuccinyl-L-leucylamido(4-guanidino)butane], the “inhibition of newly formed trophozoites and equivalent segmented schizont accumulation” value in data set [1] turned out to be 91.6%. The “block of egress of P. falciparum merozoites in vitro” value in [2] was “known to block the egress of P. falciparum merozoites in vitro”.

Consider `CC[C@H](C)[C@@H]1NC(=O)CNC(=O)[C@@H](NC(=O)[C@H](C)N)CSSC[C@@H]2NC(=O)[C@@H]3CSSC[C@@H](C(=O)N[C@@H](CC(C)C)C(=O)N[C@H](C(=O)N[C@@H](CCC(N)=O)C(=O)N[C@H](C(=O)N[C@@H](CO)C(=O)O)C(C)C)C(C)C)NC(=O)[C@H](CCCCN)NC(=O)CNC(=O)[C@H](Cc4ccc(O)cc4)NC(=O)[C@H](CCCNC(=N)N)NC(=O)[C@H](CSSC[C@H](NC(=O)[C@H](CC(N)=O)NC(=O)[C@H](CC(=O)O)NC(=O)[C@H](Cc4c[nH]cn4)NC(=O)[C@H](CC(C)C)NC1=O)C(=O)N[C@@H](C(C)C)C(=O)N[C@@H](Cc1ccc(O)cc1)C(=O)N[C@@H](C(C)C)C(=O)N1CCC[C@H]1C(=O)N[C@@H](C)C(=O)N[C@@H](CCC(N)=O)C(=O)N[C@@H](CC(N)=O)C(=O)N1CCC[C@H]1C(=O)N3)NC(=O)[C@H](CCC(N)=O)NC(=O)[C@H](CC(C)C)NC(=O)CNC(=O)[C@H](CCCNC(=N)N)NC2=O` [PcFK1], for which the “free energy of binding translated from Ki value” on recombinant PfSUB1 [3] was -6.37 kcal/mol. The “IC50, growth of P. falciparum” value in the data set with P. falciparum is given as “low micromolar range”. For the same compound, the “antifungal or antibacterial activity” value with fungi, bacteria was “no antifungal or antibacterial activity”. Besides, in the data set with human epithelial cells, the “effect on growth or viability of human epithelial cells” value is recorded as “nor do they affect the growth or viability of human epithelial cells”. In addition, in [4], the EC50 was 116 µM.

Take “KLVGADDVSLA [PvSUB1 peptide substrate with fluorophore/quencher Dabsyl/Edans at each edge]”: the Michaelis-Menten constant (Km) in data set [5] was 19.7 µM.

As to “KLVSADNIDIS [PfSUB1 peptide substrate with fluorophore/quencher Dabsyl/Edans at each edge]”, the Michaelis-Menten constant (Km) on recombinant PfSUB1 [6] was 30.2 µM.

For the compound “Psalmopeotoxin I (PcFK1), chemically synthesized with an extra serine at the C-term (from UniProt P0C201 52-86) (peptide)”, the EC50 of PcFK1 on the asynchronous culture of P. falciparum intra-erythrocytic cycle (clone 3D7, 48 hours with the drug) in data set [7] was determined as 116 µM. Moreover, the inhibition of newly formed trophozoites (merozoite egress/invasion, synchronized P. falciparum culture, 12 hr, flow cytometry) at 200 uM PcFK1, compared to the mock control in data set [8] was found to be 56.2%. The values for the inhibitory constant (Ki) in data set [9] and in data set [10] were 36.3 µM and 29.3 µM, respectively.
